Measurements from patent US20260256792A1, “TREATMENT OF CHRONIC SPONTANEOUS URTICARIA BY ADMINISTERING (R)-2-[3-[4-AMINO-3-(2-FLUORO-4-PHENOXY-PHENYL)PYRAZOLO[3,4-D]PYRIMIDIN-1-YL]PIPERIDINE-1-CARBONYL]-4-METHYL-4-[4-(OXETAN-3-YL)PIPERAZIN-1-YL]PENT-2-ENENITRILE” (priority 2023, published 2026).

Tested on: moderate-to-severe chronic spontaneous urticaria (CSU)
Experiment: Phase 2 CSU study: urticaria activity score over 7 days (UAS7)
Assay type: in vivo, human
Set-up: key to UAS7 Median / UAS7 Change from baseline Median / UAS7 change from baseline, Q1 / UAS7 change from baseline, Q3 / UAS7 change from baseline, Max / UAS7 Change from baseline LS Mean (SE): UAS7 points; daily UAS score ranges 0–6 points/day, over 7 days
Description: The study comprises a 12 week, randomized, double-blind, placebo-controlled, multi-center, dose-ranging efficacy and safety phase, followed by a 40 week open label extension (OLE) phase (see FIG. 1). The study consists of three phases and an optional OLE phase. […] Clinically, CSU is characterized by the spontaneous and recurrent appearance of pruritic hives. The proposed primary endpoints were the UAS7 at Week 12 in EU and EU reference countries and the ISS7 in the US. Regardless of where a participant was from, all assessments were the same. The UAS7 score is a composite score containing both the HSS7 and the ISS7. This allowed a global assessment of the two key components of urticaria: hives and itch. […] The UAS is a validated PRO measure. […] The daily UAS scores range from 0 to 6 point/day. […] Patients were to complete the UAS using the e-diary. […] The following secondary endpoints were to be analyzed using the same approach as for the primary endpoint: • Change from baseline in UAS7 at Week 4 • Change from baseline in UAS7 at Week 12 (for US and US reference countries) • Change from baseline in ISS7 at Week 12 (except US and US reference countries) • Change from baseline in HSS7 at Week 12 The following responder secondary endpoints were to be analyzed using the Cochran-Mantel-Haenszel test adjusted by region: • Proportion of participants with UAS7<6 at Week 12 • Proportion of participants with UAS7=0 at Week 12 Participants who received selected prohibited medications and/or rescue medications were to be considered as non-responders for time points after the medication usage. For other participants, all available data including those collected during the off-treatment period were to be used to determine the responder/non-responder status. Missing data were to be considered as non-responders.

[1] = Week 4, 400 mg TID, omalizumab-naive participants
[2] = Week 5, 400 mg BID, ITT population
[3] = Week 5, 400 mg BID, Omalizumab-Naïve
[4] = Week 5, 400 mg BID, Prior Omalizumab Use
[5] = Week 5, 400 mg BID, omalizumab-naive participants
[6] = Week 5, 400 mg QPM, ITT population
[7] = Week 5, 400 mg QPM, Omalizumab-Naïve
[8] = Week 5, 400 mg QPM, Prior Omalizumab Use
[9] = Week 5, 400 mg QPM, omalizumab-naive participants
[10] = Week 5, 400 mg TID, ITT population
[11] = Week 5, 400 mg TID, Omalizumab-Naïve
[12] = Week 5, 400 mg TID, Prior Omalizumab Use
[13] = Week 5, 400 mg TID, omalizumab-naive participants

CC(C)(C=C(C#N)C(=O)N1CCC[C@@H](n2nc(-c3ccc(Oc4ccccc4)cc3F)c3c(N)ncnc32)C1)N1CCN(C2COC2)CC1 [rilzabrutinib, (R)-2-[3-[4-amino-3-(2-fluoro-4-phenoxy-phenyl)pyrazolo[3,4-d]pyrimidin-1-yl]piperidine-1-carbonyl]-4-methyl-4-[4-(oxetan-3-yl)piperazin-1-yl]pent-2-enenitrile]
UAS7 Percent change from baseline Median (Week 4, 400 mg TID, Prior Omalizumab Use): −68.48% | Non-responder, UAS7 reduction from baseline of 10 points or more [1]: 11 (31.4) n (%) | OR for rilzabrutinib vs. placebo, UAS7 reduction of 10 points or more [1]: 3.855 | RRD (%) for rilzabrutinib vs. placebo, UAS7 reduction of 10 points or more [1]: 31.2 % | Responder, UAS7 reduction from baseline of 10 points or more [1]: 24 (68.6) n (%) | Non-responder, UAS7 reduction from baseline of 10 points or more [2]: 19 (46.3) n (%) | OR for rilzabrutinib vs. placebo, UAS7 reduction of 10 points or more [2]: 1.238 | RRD (%) for rilzabrutinib vs. placebo, UAS7 reduction of 10 points or more [2]: 5.2 % | Responder, UAS7 reduction from baseline of 10 points or more [2]: 22 (53.7) n (%) | UAS7 Change from baseline Mean (SD) [3]: −12.56 (11.55) | UAS7 Change from baseline Median [3]: −12.67 | UAS7 Mean (SD) [3]: 17.22 (13.36) | UAS7 Median [3]: 16.50 | UAS7 Percent change from baseline Mean (SD) [3]: −44.07 (39.75) % | UAS7 Percent change from baseline Median [3]: −40.89% | UAS7 Change from baseline Mean (SD) [4]: −25.00 (18.42) | UAS7 Change from baseline Median [4]: −29.00 | UAS7 Mean (SD) [4]: 9.75 (16.94) | UAS7 Median [4]: 2.00 | UAS7 Percent change from baseline Mean (SD) [4]: −71.30 (48.04) % | UAS7 Percent change from baseline Median [4]: −92.59% | Non-responder, UAS7 reduction from baseline of 10 points or more [5]: 16 (45.7) n (%) | OR for rilzabrutinib vs. placebo, UAS7 reduction of 10 points or more [5]: 1.329 | RRD (%) for rilzabrutinib vs. placebo, UAS7 reduction of 10 points or more [5]: 7.0 % | Responder, UAS7 reduction from baseline of 10 points or more [5]: 19 (54.3) n (%) | Non-responder, UAS7 reduction from baseline of 10 points or more [6]: 21 (55.3) n (%) | OR for rilzabrutinib vs. placebo, UAS7 reduction of 10 points or more [6]: 0.950 | RRD (%) for rilzabrutinib vs. placebo, UAS7 reduction of 10 points or more [6]: −1.3 % | Responder, UAS7 reduction from baseline of 10 points or more [6]: 17 (44.7) n (%) | UAS7 Change from baseline Mean (SD) [7]: −10.65 (9.52) | UAS7 Change from baseline Median [7]: −8.50 | UAS7 Mean (SD) [7]: 20.63 (9.18) | UAS7 Median [7]: 18.63 | UAS7 Percent change from baseline Mean (SD) [7]: −32.46 (26.63) % | UAS7 Percent change from baseline Median [7]: −27.86% | UAS7 Change from baseline Mean (SD) [8]: −22.00 (NC) | UAS7 Change from baseline Median [8]: −22.00 | UAS7 Mean (SD) [8]: 19.00 (NC) | UAS7 Median [8]: 19.00 | UAS7 Percent change from baseline Mean (SD) [8]: −53.66 (NC) % | UAS7 Percent change from baseline Median [8]: −53.66% | Non-responder, UAS7 reduction from baseline of 10 points or more [9]: 21 (56.8) n (%) | OR for rilzabrutinib vs. placebo, UAS7 reduction of 10 points or more [9]: 0.877 | RRD (%) for rilzabrutinib vs. placebo, UAS7 reduction of 10 points or more [9]: −3.4 % | Responder, UAS7 reduction from baseline of 10 points or more [9]: 16 (43.2) n (%) | Non-responder, UAS7 reduction from baseline of 10 points or more [10]: 12 (29.3) n (%) | OR for rilzabrutinib vs. placebo, UAS7 reduction of 10 points or more [10]: 2.703 | RRD (%) for rilzabrutinib vs. placebo, UAS7 reduction of 10 points or more [10]: 23.5 % | Responder, UAS7 reduction from baseline of 10 points or more [10]: 29 (70.7) n (%) | UAS7 Change from baseline Mean (SD) [11]: −16.74 (11.67) | UAS7 Change from baseline Median [11]: −15.17 | UAS7 Mean (SD) [11]: 13.41 (10.60) | UAS7 Median [11]: 14.00 | UAS7 Percent change from baseline Mean (SD) [11]: −54.42 (33.80) % | UAS7 Percent change from baseline Median [11]: −50.00% | UAS7 Change from baseline Mean (SD) [12]: −24.11 (14.81) | UAS7 Change from baseline Median [12]: −20.50 | UAS7 Mean (SD) [12]: 8.92 (10.94) | UAS7 Median [12]: 5.50 | UAS7 Percent change from baseline Mean (SD) [12]: −70.71 (27.72) % | UAS7 Percent change from baseline Median [12]: −73.90% | Non-responder, UAS7 reduction from baseline of 10 points or more [13]: 11 (31.4) n (%) | OR for rilzabrutinib vs. placebo, UAS7 reduction of 10 points or more [13]: 2.512 | RRD (%) for rilzabrutinib vs. placebo, UAS7 reduction of 10 points or more [13]: 22.4 % | Responder, UAS7 reduction from baseline of 10 points or more [13]: 24 (68.6) n (%) | Non-responder, UAS7 reduction from baseline of 10 points or more (Week 6, 400 mg BID, ITT population): 20 (48.8) n (%)
